Experimental data reported in US20240158446A1, “CYCLIC COMPOUND HAVING SELECTIVE INHIBITORY ACTION ON KRAS OVER HRAS AND NRAS” (CHUGAI SEIYAKU KABUSHIKI KAISHA, priority 2021, published 2024).
Read-outs that look alike come from different tables or passages of the source. Where a SMILES comes first, the peptide text is derived from it. Bridges are numbered along the chain shown (N, C = ends). [ ]: non-standard residue; d: D form. The star is where a group is joined. hPhe(3-Cl-4-CF3) = N[C@@H](CCc1ccc(C(F)(F)F)c(Cl)c1)C(=O)O; NPrPhe(4-CF3) = CCCN[C@@H](Cc1ccc(C(F)(F)F)cc1)C(=O)O; NPrPhe(4-Me) = CCCN[C@@H](Cc1ccc(C)cc1)C(=O)O; NEtPhe(4-Me) = CCN[C@@H](Cc1ccc(C)cc1)C(=O)O; NMeGly(cPent) = CN[C@H](C(=O)O)C1CCCC1; NMeD = CN[C@@H](CC(=O)O)C(=O)O; NMeL = CN[C@@H](CC(C)C)C(=O)O; NMeV = CN[C@H](C(=O)O)C(C)C; Pip = O=C(O)[C@@H]1CCCCN1; Morpholide = C1CN(*)CCO1; Ac5c = NC1(C(=O)O)CCCC1; Aze = O=C(O)[C@@H]1CCN1; Sar = CNCC(=O)O

What was measured:
[1] = biological target: GDP-bound NRAS wild-type protein (Homo sapiens, UniProt P01111); experiment: Binding to NRAS by surface plasmon resonance (SPR), Single Cycle Kinetics; settings: for NRAS/KRAS (ratio of KD value for NRAS to KD value for KRAS): SPR, GDP-bound NRAS wild-type protein vs GDP-bound KRAS wild-type protein
GDP-bound NRAS wild-type protein, sequence (P01111 whole entry): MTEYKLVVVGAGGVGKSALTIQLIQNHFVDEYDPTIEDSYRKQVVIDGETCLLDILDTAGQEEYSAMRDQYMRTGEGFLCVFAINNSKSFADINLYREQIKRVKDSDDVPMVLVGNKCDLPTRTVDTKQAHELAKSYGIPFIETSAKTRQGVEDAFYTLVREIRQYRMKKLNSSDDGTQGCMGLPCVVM

[2] = biological target: GDP-bound HRAS wild-type protein (Homo sapiens, UniProt P01112); experiment: Binding to HRAS by surface plasmon resonance (SPR), Single Cycle Kinetics; settings: for HRAS/KRAS (ratio of KD value for HRAS to KD value for KRAS): SPR, GDP-bound HRAS wild-type protein vs GDP-bound KRAS wild-type protein
GDP-bound HRAS wild-type protein, sequence (P01112 whole entry): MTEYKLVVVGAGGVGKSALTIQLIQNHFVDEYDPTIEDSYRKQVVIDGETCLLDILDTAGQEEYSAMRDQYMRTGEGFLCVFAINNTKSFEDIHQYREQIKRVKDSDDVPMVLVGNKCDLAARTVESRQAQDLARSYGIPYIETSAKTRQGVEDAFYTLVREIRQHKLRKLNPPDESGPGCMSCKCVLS

[3] = tested on: human lung cancer strain NCI-H441;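 also: cell proliferation inhibition after four days measured by CellTiter-Glo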
[4] = read-out: NCI-H441 IC50, NCI-H441 cell proliferation, 4 days, CellTiter-Glo
[5] = read-out: NCI-H441 IC50, NCI-H441 cells, four days, CellTiter-Glo
[6] = read-out: NCI-H441 cell proliferation inhibitory activity, 50% proliferation inhibitory concentration (IC50 value), NCI-H441, four days, CellTiter-Glo

## CCC[C@H]1C(=O)N[C@H]([C@@H](C)CC)C(=O)N(C)CC(=O)N(C)[C@H]2C/C=C\CCN(C2=O)[C@@H](Cc2ccc(C)cc2)C(=O)N(C)CC(=O)N[C@@H](CCc2cc(F)c(C(F)F)c(F)c2)C(=O)N2C[C@H](OCC)C[C@H]2C(=O)NC2(CC(C)(C)C2)C(=O)N(C)[C@@H](C(CC)CC)C(=O)N(C)[C@H](C(=O)N(C)C)CC(=O)N1C (stereo in doubt) [PP2783]
[1]; SPR KD ratio NRAS/KRAS, class symbols
  NRAS/KRAS (ratio of KD value with respect to GDP-bound NRAS wild-type protein to KD value with respect to KRAS): A (a compound having 10 or more and less than 20 is denoted as A)
[2]; SPR KD ratio HRAS/KRAS, class symbols
  HRAS/KRAS (ratio of KD value with respect to GDP-bound HRAS wild-type protein to KD value with respect to KRAS): A (a compound having 10 or more and less than 20 is denoted as A)
[3]
  IC50: 0.0339 µM

## CC[C@H](C)[C@@H]1NC(=O)[C@H](CC(C)C)N(C)C(=O)C[C@@H](C(=O)N2CCOCC2)N(C)C(=O)[C@H](C(C)C)N(C)C(=O)C2(CCCC2)NC(=O)[C@@H]2CCCN2C(=O)[C@H](CCc2ccc(C(F)(F)F)c(Cl)c2)NC(=O)CN(C)C(=O)[C@H](Cc2ccc(C)cc2)N(CC)C(=O)CN(C)C(=O)CN(C)C1=O [PP0044] ([NMeL]I[Sar][Sar][NEtPhe(4-Me)][Sar][hPhe(3-Cl-4-CF3)]P[Ac5c][NMeV][NMeD]-Morpholide; lactam N-11)
[1]
  NRAS/KRAS (ratio of KD value for NRAS to KD value for KRAS): C (A compound having a KD ratio of 0.1 or more and less than 3 is denoted as C)
[2]
  HRAS/KRAS (ratio of KD value for HRAS to KD value for KRAS): C (A compound having a KD ratio of 0.1 or more and less than 3 is denoted as C)
[3]
  IC50: 0.142 µM

## CCCN1C(=O)[C@@H]2CCN2C(=O)[C@@H]2CCCCN2C(=O)[C@H]([C@@H](C)CC)NC(=O)[C@H](CC(C)C)N(C)C(=O)C[C@@H](C(=O)N2CCOCC2)N(C)C(=O)[C@H](C2CCCC2)N(C)C(=O)C2(CCCC2)NC(=O)[C@@H]2CCCN2C(=O)[C@H](CCc2ccc(C(F)(F)F)c(Cl)c2)NC(=O)CN(C)C(=O)[C@@H]1Cc1ccc(C)cc1 [PP0070] ([NMeL]I[Pip][Aze][NPrPhe(4-Me)][Sar][hPhe(3-Cl-4-CF3)]P[Ac5c][NMeGly(cPent)][NMeD]-Morpholide; lactam N-11)
[1]
  NRAS/KRAS (ratio of KD value for NRAS to KD value for KRAS): C (A compound having a KD ratio of 0.1 or more and less than 3 is denoted as C)
[2]
  HRAS/KRAS (ratio of KD value for HRAS to KD value for KRAS): B (a compound having 3 or more and less than 10 is denoted as B)
[3]
  IC50: 0.0021 µM

## CCCN1C(=O)[C@@H]2CCN2C(=O)[C@@H]2CCCCN2C(=O)[C@H]([C@@H](C)CC)NC(=O)[C@H](CC(C)C)N(C)C(=O)C[C@@H](C(=O)N2CCOCC2)N(C)C(=O)[C@H](C2CCCC2)N(C)C(=O)C2(CCCC2)NC(=O)[C@@H]2CCCN2C(=O)[C@H](CCc2ccc(C(F)(F)F)c(Cl)c2)NC(=O)CN(C)C(=O)[C@@H]1Cc1ccc(C(F)(F)F)cc1 [PP0077] ([NMeL]I[Pip][Aze][NPrPhe(4-CF3)][Sar][hPhe(3-Cl-4-CF3)]P[Ac5c][NMeGly(cPent)][NMeD]-Morpholide; lactam N-11)
[1]
  NRAS/KRAS (ratio of KD value for NRAS to KD value for KRAS): C (A compound having a KD ratio of 0.1 or more and less than 3 is denoted as C)
[2]
  HRAS/KRAS (ratio of KD value for HRAS to KD value for KRAS): B (a compound having 3 or more and less than 10 is denoted as B)
[3]
  IC50: 0.0053 µM

## CCOC1CC2C(=O)NC3(CCC3)C(=O)N(C)C(C(C)CC)C(=O)N(C)[C@H](C(=O)N3CCOCC3)CC(=O)N(C)[C@@H](CC(C)C)C(=O)N[C@@H]([C@@H](C)CC)C(=O)N(C)CC(=O)N(C)[C@H]3CCCCN(C3=O)[C@@H](Cc3ccc(C(F)(F)F)cc3)C(=O)N(C)CC(=O)N[C@@H](CCc3cc(F)c(C(F)(F)F)c(F)c3)C(=O)N2C1 (stereo partly drawn) [PP0812]
[3]
  IC50: 0.0179 µM

## CC[C@H](C)[C@@H]1NC(=O)[C@H](CC(C)C)N(C)C(=O)C[C@@H](C(=O)N(C)C)N(CCC2CCCC2)C(=O)[C@H](C2CCCC2)N(C)C(=O)C2(CCCC2)NC(=O)[C@@H]2CCCN2C(=O)[C@H](CCc2ccc(C(F)(F)F)c(Cl)c2)NC(=O)CN(C)C(=O)[C@H](Cc2ccc(F)cc2)N2CCCCC[C@@H](C2=O)N(C)C(=O)CN(C)C1=O [PP0975]
[3]
  IC50: 1.57 µM

## CCO[C@@H]1C[C@H]2C(=O)NC3(CC(C)(C)C3)C(=O)N(C)[C@@H](C(CC)CC)C(=O)N(C)C(CC)CC(=O)N(C)[C@@H](CC)C(=O)N[C@@H]([C@@H](C)CC)C(=O)N(C)CC(=O)N(C)[C@H]3C/C=C\CCN(C3=O)[C@@H](Cc3ccc(C(F)(F)F)cc3)C(=O)N(C)CC(=O)N[C@@H](CCc3cc(F)c(C(F)(F)F)c(F)c3)C(=O)N2C1 (stereo partly drawn) [PP1622]
[3]; [4]
  IC50: 0.0281 µM

## CCO[C@@H]1C[C@H]2C(=O)NC3(CCC3)C(=O)N(C)[C@@H](C3CCCC3)C(=O)N(C)[C@H](CC)CC(=O)N(C)[C@@H](CC3CC3)C(=O)N[C@@H]([C@@H](C)CC)C(=O)N(C)CC(=O)N(C)[C@H]3C/C=C\CCN(C3=O)C(Cc3ccc(C(F)(F)F)cc3)C(=O)N(C)CC(=O)N[C@@H](CCc3cc(F)c(C(F)(F)F)c(F)c3)C(=O)N2C1 (stereo partly drawn) [PP1631]
[3]; [4]
  IC50: 0.0176 µM

## CCCOC[C@H]1C(=O)N[C@@H]([C@@H](C)OCC)C(=O)N(C)CC(=O)N(C)[C@H]2C/C=C\CCN(C2=O)[C@@H](Cc2ccc(C)cc2)C(=O)N(C)CC(=O)N[C@@H](CCc2ccc(C(F)(F)F)c(OC)c2)C(=O)N2C[C@@H](C)C[C@H]2C(=O)NC2(CC(C)(C)C2)C(=O)N(C)[C@@H](C2CCCC2)C(=O)N(C)[C@H](C(=O)N(C)CC)CC(=O)N1C [PP2423]
[3]
  IC50: 0.0719 µM

## CC[C@H](C)[C@@H]1NC(=O)[C@H](COC)N(C)C(=O)C[C@@H](C(=O)N(C)C)N(C)C(=O)[C@H](C2CCCC2)N(C)C(=O)C2(CC(C)(C)C2)NC(=O)[C@@H]2C[C@@H](OC3CCCC3)CN2C(=O)[C@H](CCc2cc(F)c(C(F)(F)F)c(F)c2)NC(=O)CN(C)C(=O)[C@H](Cc2ccc(C)cc2)N2CC/C=C\C[C@@H](C2=O)N(C)C(=O)CN(C2CC2)C1=O [PP2626]
[3]
  IC50: 0.0334 µM

## CCO[C@@H]1C[C@H]2C(=O)NC3(CC(C)(C)C3)C(=O)N(C)[C@@H](C3CCCC3)C(=O)N(C)[C@H](C(=O)N(C)C)CC(=O)N(C)[C@@H](CC(C)C)C(=O)N[C@@H]([C@@H](C)CC)C(=O)N(C)CC(=O)N(C)[C@H]3C/C=C\CCN(C3=O)[C@@H](Cc3ccc(CC)cc3)C(=O)N(C)CC(=O)N[C@@H](CCc3ccc(C(F)(F)F)c(OC)c3)C(=O)N2C1 [PP2687, (2S,8S,12R,14S,20S,23S,27S,30S,36S,38Z)-20-cyclopentyl-12-ethoxy-2-[(4-ethylphenyl)methyl]-27-isobutyl-8-[2-[3-methoxy-4-(trifluoromethyl)phenyl]ethyl]-N,N,3′,3′,4,19,22,26,32,35-decamethyl-30-[(1S)-1-methylpropyl]-3,6,9,15,18,21,25,28,31,34,42-undecaoxo-spiro[1,4,7,10,16,19,22,26,29,32,35-undecazatricyclo[34.5.1.0^10,14]dotetracont-38-ene-17,1′-cyclobutane]-23-carboxamide]
[3]
  IC50: 0.0029 µM

## CCO[C@@H]1C[C@H]2C(=O)NC3(CC(C)(C)C3)C(=O)N(C)[C@@H](C(CC)CC)C(=O)N(C)[C@H](C(=O)N3CCCCC3)CC(=O)N(C)[C@H]3CCC/C=C/c4ccc(cc4)C[C@@H](C(=O)N(C)CC(=O)N[C@@H](CCc4ccc(Cl)c(Cl)c4)C(=O)N2C1)N1CC/C=C\C[C@@H](C1=O)N(C)C(=O)CN(C)C(=O)[C@H]([C@@H](C)CC)NC3=O [PP2953]
[3]; [5]
  IC50: 0.0334 µM

## CCO[C@@H]1C[C@H]2C(=O)NC3(CCC3)C(=O)N(C)[C@@H](C3CCCC3)C(=O)N(C)[C@H](C(=O)N3CCCCC3)CC(=O)N(C)[C@H]3CCC/C=C/c4ccc(cc4)C[C@@H](C(=O)N(C)CC(=O)N[C@@H](CCc4ccc(Cl)c(Cl)c4)C(=O)N2C1)N1CC/C=C\C[C@@H](C1=O)N(C)C(=O)CN(C1CC1)C(=O)[C@H]([C@@H](C)CC)NC3=O [PP2958]
[3]; [5]
  IC50: 0.0195 µM

## CCO[C@@H]1C[C@H]2C(=O)NC3(CCC3)C(=O)N(C)[C@@H](C(CC)CC)C(=O)N(C)[C@H](C(=O)N3CCCCC3)CC(=O)N(C)[C@H]3CCC/C=C/c4ccc(cc4)C[C@@H](C(=O)N(C)CC(=O)N[C@@H](CCc4ccc(Cl)c(Cl)c4)C(=O)N2C1)N1CC/C=C\C[C@@H](C1=O)N(C)C(=O)CN(C1CC1)C(=O)[C@H]([C@@H](C)CC)NC3=O [PP3039]
[3]; [5]
  IC50: 0.018 µM

## CCCO[C@@H]1C[C@H]2C(=O)NC3(CC(C)(C)C3)C(=O)N(C)[C@@H](C3CCCC3)C(=O)N(C)[C@H](C(=O)N(C)C)CC(=O)N(C)[C@H]3CCCCc4ccc(cc4)C[C@@H](C(=O)N(C)CC(=O)N[C@@H](CCc4ccc(C(F)(F)F)c(OC)c4)C(=O)N2C1)N1CC/C=C\C[C@@H](C1=O)N(C)C(=O)CN(C1CC1)C(=O)[C@H]([C@@H](C)CC)NC3=O [PP3082]
[3]; [6]
  IC50: 0.0017 µM

## CCC[C@H]1C(=O)N[C@@H]([C@@H](C)CC)C(=O)N(C2CC2)CC(=O)N(C)[C@H]2C/C=C\CCN(C2=O)[C@@H](Cc2ccc(C)cc2)C(=O)N(C)CC(=O)N[C@@H](CCc2ccc(C(F)(F)F)c(OC)c2)C(=O)N2C[C@H](OCC)C[C@H]2C(=O)N(C)C2(CCC2)C(=O)N(C)[C@@H](C2CCCC2)C(=O)N(C)[C@H](C(=O)N2CCCCC2)CC(=O)N1C [PP3096, (2S,8S,12R,14S,20S,23S,27S,30S,36S,38Z)-20-cyclopentyl-32-cyclopropyl-12-ethoxy-8-[2-[3-methoxy-4-(trifluoromethyl)phenyl]ethyl]-4,16,19,22,26,35-hexamethyl-30-[(1S)-1-methylpropyl]-23-(piperidine-1-carbonyl)-27-propyl-2-(p-tolylmethyl)spiro[1,4,7,10,16,19,2226293235-undecazatricyclo[34.5.1.0^10,14]dotetracont-38-ene-17,1′-cyclobutane]-3,6,9,15,18,21,25,28,31,34,42-undecone]
[3]; [6]
  IC50: 0.0358 µM
